Test results taken from US9499547B2 (BAYER INTELLECTUAL PROPERTY GMBH, priority 2011, dated 2016).

Legend:
human full-length MKNK1 [1] = target: T1, human full-length MKNK1 (Homo sapiens (Human), UniProt Q9BUB5, T344D); experiment: MKNK1 kinase assay (MKNK1 TR-FRET assay); assay type: biochemical; settings: 10 μM ATP final conc.; 15 min preincubation with enzyme
Procedure: MKNK1-inhibitory activity of compounds of the present invention was quantified employing the MKNK1 TR-FRET assay as described in the following paragraphs.
As substrate for the kinase reaction the biotinylated peptide biotin-Ahx-[…] (C-terminus in amide form) was used which can be purchased e.g. form the company Biosyntan (Berlin-Buch, Germany).
(§1) For the assay 50 nL of a 100 fold concentrated solution of the test compound in DMSO was pipetted into a black low volume 384 well microtiter plate (Greiner Bio-One, Frickenhausen, Germany), 2 μL of a solution of MKNK1 in aqueous assay buffer [50 mM HEPES pH 7.5, 5 mM magnesium chloride, 1.0 mM dithiothreitol, 0.005% (v/v) Nonidet-P40 (Sigma)] was added and the mixture was incubated for 15 min at 22° C. to allow pre-binding of the test compounds to the enzyme before the start of the kinase reaction. Then the kinase reaction was started by the addition of 3 μL of a solution of adenosine-tri-phosphate (ATP, 16.7 μM=>final conc. in the 5 μL assay volume is 10 μM) and substrate (0.1 μM=>final conc. in the 5 μL assay volume is 0.06 μM) in assay buffer and the resulting mixture was incubated for a reaction time of 45 min at 22° C. The concentration of MKNK1 was adjusted depending of the activity of the enzyme lot and was chosen appropriate to have the assay in the linear range, typical concentrations were in the range of 0.05 μg/ml. The reaction was stopped by the addition of 5 μL of a solution of TR-FRET detection reagents (5 nM streptavidine-XL665 [Cisbio Bioassays, Codolet, France] and 1 nM anti-ribosomal protein S6 (pSer236)-antibody from Invitrogen [#44921G] and 1 nM LANCE EU-W1024 labeled ProteinG [Perkin-Elmer, product no. AD0071]) in an aqueous EDTA-solution (100 mM EDTA, 0.1% (w/v) bovine serum albumin in 50 mM HEPES pH 7.5).
(§2) The resulting mixture was incubated for 1 h at 22° C. to allow the formation of complex between the phosphorylated biotinylated peptide and the detection reagents. Subsequently the amount of phosphorylated substrate was evaluated by measurement of the resonance energy transfer from the Eu-chelate to the streptavidine-XL. Therefore, the fluorescence emissions at 620 nm and 665 nm after excitation at 350 nm were measured in a TR-FRET reader, e.g. a Rubystar (BMG Labtechnologies, Offenburg, Germany) or a Viewlux (Perkin-Elmer). The ratio of the emissions at 665 nm and at […] was taken as the measure for the amount of phosphorylated substrate. The data were normalised (enzyme reaction without inhibitor=0% inhibition, all other assay components but no enzyme=100% inhibition).

human full-length MKNK1 [2] = target: T1, human full-length MKNK1; experiment: MKNK1 kinase high ATP assay (TR-FRET-based); assay type: biochemical; settings: 2 mM ATP final conc.; 15 min preincubation with enzyme
Procedure: MKNK1 Kinase High ATP Assay
MKNK1-inhibitory activity at high ATP of compounds of the present invention after their preincubation with MKNK1 was quantified employing the TR-FRET-based MKNK1 high ATP assay as described in the following paragraphs.
As substrate for the kinase reaction the biotinylated peptide biotin-Ahx-[…] (C-terminus in amide form) was used, which can be purchased e.g. from the company Biosyntan (Berlin-Buch, Germany).
as §1, with “3.3 mM=>final” for “16.7 μM=>final”, “2 mM)” for “10 μM)”, “30” for “45”, “0.003 μg/mL.” for “0.05 μg/ml.”
as §2

T1 sequence (Q9BUB5 other isoform, or with tags, fused parts or gaps T344D): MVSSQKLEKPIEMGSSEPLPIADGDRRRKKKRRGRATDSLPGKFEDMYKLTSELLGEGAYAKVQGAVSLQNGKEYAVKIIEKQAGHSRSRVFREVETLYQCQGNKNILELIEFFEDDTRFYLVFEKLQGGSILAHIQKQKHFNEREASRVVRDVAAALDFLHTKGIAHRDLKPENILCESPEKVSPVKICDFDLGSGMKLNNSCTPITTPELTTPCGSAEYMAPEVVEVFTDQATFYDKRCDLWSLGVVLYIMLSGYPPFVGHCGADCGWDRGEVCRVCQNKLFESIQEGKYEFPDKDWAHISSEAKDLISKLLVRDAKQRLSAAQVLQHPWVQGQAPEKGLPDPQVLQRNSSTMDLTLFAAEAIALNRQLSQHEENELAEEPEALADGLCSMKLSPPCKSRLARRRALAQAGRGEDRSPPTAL

C[C@H](N)COc1ccc2ncc(-c3cc4c(F)cccc4o3)n2n1 [Example 45, (2S)-1-{[3-(4-Fluoro-1-benzofuran-2-yl)imidazo[1,2-b]pyridazin-6-yl]oxy}-propan-2-amine]
IC50 (human full-length MKNK1 [1]): 17 nM
IC50 (human full-length MKNK1 [2]): 71 nM

N[C@H](COc1ccc2ncc(-c3cc4c(F)cccc4o3)n2n1)c1ccccc1 [Example 46, (1S)-2-{[3-(4-Fluoro-1-benzofuran-2-yl)imidazo[1,2-b]pyridazin-6-yl]oxy}-1-phenylethanamine]
IC50 (human full-length MKNK1 [1]): 36 nM
IC50 (human full-length MKNK1 [2]): 67 nM

C[C@H](CN)Oc1ccc2ncc(-c3cc4cccc(F)c4o3)n2n1 [Example 48, (2R)-2-{[3-(7-Fluoro-1-benzofuran-2-yl)imidazo[1,2-b]pyridazin-6-yl]oxy}-propan-1-amine]
IC50 (human full-length MKNK1 [1]): 71 nM
IC50 (human full-length MKNK1 [2]): 115 nM

Cc1ccc2oc(-c3cnc4ccc(O[C@H](C)CN)nn34)cc2c1 [Example 49, (2R)-2-{[3-(5-Methyl-1-benzofuran-2-yl)imidazo[1,2-b]pyridazin-6-yl]oxy}-propan-1-amine]
IC50 (human full-length MKNK1 [1]): 88 nM
IC50 (human full-length MKNK1 [2]): 154 nM

N[C@H](COc1ccc2ncc(-c3cc4ccccc4o3)n2n1)Cc1ccccc1 [Example 50, (2S)-1-{[3-(1-Benzofuran-2-yl)imidazo[1,2-b]pyridazin-6-yl]oxy}-3-phenylpropan-2-amine]
IC50 (human full-length MKNK1 [1]): 27 nM
IC50 (human full-length MKNK1 [2]): 54 nM

NC1(COc2ccc3ncc(-c4cc5ccccc5o4)n3n2)CC1 [Example 51, 1-({[3-(1-Benzofuran-2-yl)imidazo[1,2-b]pyridazin-6-yl]oxy}methyl)cyclopropanamine]
IC50 (human full-length MKNK1 [1]): 29 nM
IC50 (human full-length MKNK1 [2]): 74 nM

NCC(COc1ccc2ncc(-c3cc4ccccc4o3)n2n1)c1ccccc1 (centres unmarked) [Example 52, 3-{[3-(1-Benzofuran-2-yl)imidazo[1,2-b]pyridazin-6-yl]oxy}-2-phenylpropan-1-amine]
IC50 (human full-length MKNK1 [1]): 17 nM
IC50 (human full-length MKNK1 [2]): 30 nM
